Assay results published in US12729377B2, “RNAi agents and compositions for inhibiting expression of angiopoietin-like 3 (ANGPTL3), and methods of use” (Arrowhead Pharmaceuticals, Inc., priority 2017, dated 2026).
In the oligonucleotide strings, read from the 5' end, every base follows the letter of its sugar. An asterisk marks phosphorothioate; unmarked linkages are phosphodiester. Other units and linkages are bracketed, terminal groups are in braces. A string of capitals states the bases alone. {NAG37} = tridentate N-acetyl-galactosamine targeting ligand, structure (NAG37)s; [invAb] = inverted abasic unit; m = 2'-O-methyl; f = 2'-fluoro

Key:
ANGPTL3 gene [1] = assay: Example 7: serum LDL in mice; format: in vivo; design: key: ratio: (level/pre-treatment day -1 level) ÷ mean of D5W control group; conditions: 0.5 mg/kg single SC injection day 1, female C57bl/6 mice, n=3, ratio to D5W control
Protocol: (§1) To further assess the in vivo activity of additional ANGPTL3 RNAi agents that are designed to target position 304 on the ANGPTL3 gene, six- to eight-week-old female C57bl/6 mice were used. Pre-dose serum samples were taken at day −1 after a four hour fast. At day 1, each mouse was given a single subcutaneous administration of 200 μl containing 0.5 mg/kg (mpk) of an ANGPTL3 RNAi agent in D5W (dextrose in 5% water), or control (D5W) with no RNAi agent, according to the dosing groups recited in Table 31.
(§2) Each of the RNAi agents included a modified sequence and an N-acetyl-galactosamine-containing targeting ligand conjugated to the 5′ terminal end of the sense strand. (See Tables 3, 4, and 5 for modified sequences and targeting ligand structures). The injections were performed between the skin and muscle (i.e. subcutaneous injections) into the loose skin over the neck and shoulder area. Three (3) mice in each group were tested (n=3). Serum was collected on days 8, 15, 22, and 29. Mice were fasted for four hours prior to each collection. ANGPTL3 protein levels in serum were measured by ELISA assay (R&D Systems), according to the manufacturer's recommendations. Triglycerides, total cholesterol, high-density lipoprotein (HDL), and low-density lipoprotein (LDL) in serum were measured on a Cobas® Integra 400 (Roche Diagnostics), according to the manufacturer's recommendations.
(§3) The ANGPTL3 protein levels, triglyceride levels, total cholesterol levels, HDL levels, and LDL levels for each animal were normalized. For normalization, the level of ANGPTL3 protein, triglyceride, HDL, and total cholesterol, respectively, for each animal at a time point, was divided by the pre-treatment level of expression in that animal (in this case at day −1) to determine the ratio of expression “normalized to pre-treatment.” Expression at a specific time point was then normalized to the D5W control group by dividing the “normalized to pre-treatment” ratio for an individual animal by the mean “normalized to pretreatment” ratio of all mice in the D5W control group.

ANGPTL3 gene [2] = assay: Example 7: serum triglycerides in mice; format: in vivo, C57bl/6 mice; design: key: ratio: (level/pre-treatment day -1 level) ÷ mean of D5W control group
Protocol: as §1, §2, §3

ANGPTL3 gene [3] = assay: Example 4: serum total cholesterol in mice; format: in vivo, C57bl/6 mice
Protocol: as §1, with “To” for “To further”, “of” for “of additional”, “additional positions” for “position 304”, “containing either 1 mg/kg (mpk) or” for “containing”, “17.” for “31.”
as §2, with “22, 29,” for “22,”, “day 43 (Groups 1-3, 9, and 11-13 only).” for “29.”, “Triglycerides,” for “Triglycerides, total cholesterol,”, “total cholesterol” for “low-density lipoprotein (LDL)”
(§4) The ANGPTL3 protein levels, triglyceride levels, HDL levels, and total cholesterol levels for each animal were normalized. For normalization, the level of ANGPTL3 protein, triglyceride, HDL, and total cholesterol, respectively, for each animal at a time point, was divided by the pre-treatment level of expression in that animal (in this case at day −1) to determine the ratio of expression “normalized to pre-treatment.” Expression at a specific time point was then normalized to the D5W control group by dividing the “normalized to pre-treatment” ratio for an individual animal by the mean “normalized to pretreatment” ratio of all mice in the D5W control group.

ANGPTL3 protein = assay: Example 4: serum ANGPTL3 protein by ELISA in mice; format: in vivo, C57bl/6 mice; conditions: for Avg ANGPTL3 (Average ANGPTL3 Protein Normalized to Pre-Treatment and Control): 1.0 mg/kg single subcutaneous dose on day 1, serum, female C57bl/6 mice
Protocol: as §1, with “To” for “To further”, “of” for “of additional”, “additional positions” for “position 304”, “containing either 1 mg/kg (mpk) or” for “containing”, “17.” for “31.”
as §2, with “22, 29,” for “22,”, “day 43 (Groups 1-3, 9, and 11-13 only).” for “29.”, “Triglycerides,” for “Triglycerides, total cholesterol,”, “total cholesterol” for “low-density lipoprotein (LDL)”
as §4

ANGPTL3 gene [4] = assay: Example 4: serum triglycerides in mice; format: in vivo
Protocol: as §1, with “To” for “To further”, “of” for “of additional”, “additional positions” for “position 304”, “containing either 1 mg/kg (mpk) or” for “containing”, “17.” for “31.”
as §2, with “22, 29,” for “22,”, “day 43 (Groups 1-3, 9, and 11-13 only).” for “29.”, “Triglycerides,” for “Triglycerides, total cholesterol,”, “total cholesterol” for “low-density lipoprotein (LDL)”
as §4

ANGPTL3 gene [5] = assay: Example 7: serum total cholesterol in mice; format: in vivo, C57bl/6 mice; design: key: ratio: (level/pre-treatment day -1 level) ÷ mean of D5W control group
Protocol: as §1, §2, §3

[6] = Day 8, 0.5 mg/kg single SC injection on day 1, n=3
[7] = Day 15, 0.5 mg/kg single SC injection on day 1, n=3
[8] = Day 22, 0.5 mg/kg single SC injection on day 1, n=3
[9] = Day 29, 0.5 mg/kg single SC injection on day 1, n=3

With “AD05488: RNAi agent duplex: antisense AM07235-AS, sense AM07234-SS (antisense mU*fA*mC*fUmGfAmUfCmAfAmAfUmAfUmGfUmUfGmAfG*mC; sense {NAG37}*[invAb]*mGmCmUmCmAmAmCmAfUfAfUmUmUmGmAmUmCmAmGmUmA*[invAb])” as the substance, how does the “Avg LDL, normalized to pre-treatment and control” value (shortened to “Avg LDL, normalized”) (ANGPTL3 gene [1]; Day 8) read?
The value was 0.953.

What about the “Avg LDL, normalized” value (ANGPTL3 gene [1]; Day 15) of the same substance?
Its value is 0.825.

And the “Avg LDL, normalized” value (ANGPTL3 gene [1]; Day 22)?
The value was 0.860.

What about the “Avg LDL, normalized” value (ANGPTL3 gene [1]; Day 29) of the same substance?
Its value is 1.055.

What about the “Avg TG, normalized to pre-treatment and control” value (“Avg TG, normalized” for short) (ANGPTL3 gene [2]; [6]) of the same substance?
The value was 0.856.

What about the “Avg TG, normalized” value (ANGPTL3 gene [2]; [7]) of the same substance?
Its value is 0.947.

What about the “Avg TG, normalized” value (ANGPTL3 gene [2]; [8]) of the same substance?
The value was 0.922.

What about the “Avg TG, normalized” value (ANGPTL3 gene [2]; [9]) of the same substance?
The value was 0.877.

And the “Avg Total Chol, normalized to pre-treatment and control” value (shortened to “Avg Total Chol, normalized”) (ANGPTL3 gene [3]; Day 8, 1.0 mg/kg single SC injection on day 1, n=3)?
Its value is 0.827.

And the “Avg Total Chol, normalized” value (ANGPTL3 gene [3]; Day 15, 1.0 mg/kg single SC injection on day 1, n=3)?
The value was 0.667.

What about the “Avg Total Chol, normalized” value (ANGPTL3 gene [3]; Day 22, 1.0 mg/kg single SC injection on day 1, n=3) of the same substance?
The value was 0.759.

What about the “Avg Total Chol, normalized” value (ANGPTL3 gene [3]; Day 29, 1.0 mg/kg single SC injection on day 1, n=3) of the same substance?
Its value is 0.683.

And the “Avg Total Chol, normalized” value (ANGPTL3 gene [3]; Day 43, 1.0 mg/kg single SC injection on day 1, n=3)?
The value was 0.837.

What about the “Avg ANGPTL3 (Average ANGPTL3 Protein Normalized to Pre-Treatment and Control)” value (ANGPTL3 protein; Day 8) of the same substance?
Its value is 0.090.

And the “Avg ANGPTL3 (Average ANGPTL3 Protein Normalized to Pre-Treatment and Control)” value (ANGPTL3 protein; Day 15)?
Its value is 0.070.

What about the “Avg ANGPTL3 (Average ANGPTL3 Protein Normalized to Pre-Treatment and Control)” value (ANGPTL3 protein; Day 22) of the same substance?
Its value is 0.092.

And the “Avg ANGPTL3 (Average ANGPTL3 Protein Normalized to Pre-Treatment and Control)” value (ANGPTL3 protein; Day 29)?
Its value is 0.124.

What about the “Avg ANGPTL3 (Average ANGPTL3 Protein Normalized to Pre-Treatment and Control)” value (ANGPTL3 protein; Day 43) of the same substance?
Its value is 0.254.

What about the “ANGPTL3 protein normalized to pre-treatment and control” value (ANGPTL3 protein; day 15, single 1 mg/kg subcutaneous, C57bl/6 mice) of the same substance?
The value was 0.070.

And the “ANGPTL3 protein normalized to pre-treatment and control” value (ANGPTL3 protein; day 22, single 1 mg/kg subcutaneous, C57bl/6 mice)?
The value was 0.092.

And the “knockdown of ANGPTL3 protein” value (ANGPTL3 protein; days 15 and 22, single 1 mg/kg subcutaneous, C57bl/6 mice)?
Its value is “greater than 90%”.

And the “Avg TG (Average Triglycerides Normalized to Pre-Treatment and Control)” value (ANGPTL3 gene [4]; Day 8, 1.0 mg/kg single subcutaneous dose on day 1, female C57bl/6 mice)?
Its value is 0.624.

What about the “Avg TG (Average Triglycerides Normalized to Pre-Treatment and Control)” value (ANGPTL3 gene [4]; Day 15, 1.0 mg/kg single subcutaneous dose on day 1, female C57bl/6 mice) of the same substance?
Its value is 0.795.

What about the “Avg TG (Average Triglycerides Normalized to Pre-Treatment and Control)” value (ANGPTL3 gene [4]; Day 22, 1.0 mg/kg single subcutaneous dose on day 1, female C57bl/6 mice) of the same substance?
The value was 0.837.

What about the “Avg TG (Average Triglycerides Normalized to Pre-Treatment and Control)” value (ANGPTL3 gene [4]; Day 29, 1.0 mg/kg single subcutaneous dose on day 1, female C57bl/6 mice) of the same substance?
The value was 0.721.

And the “Avg TG (Average Triglycerides Normalized to Pre-Treatment and Control)” value (ANGPTL3 gene [4]; Day 43, 1.0 mg/kg single subcutaneous dose on day 1, female C57bl/6 mice)?
The value was 0.901.

And the “Avg Total Chol, normalized” value (ANGPTL3 gene [5]; [6])?
Its value is 0.802.

What about the “Avg Total Chol, normalized” value (ANGPTL3 gene [5]; [7]) of the same substance?
The value was 0.810.

What about the “Avg Total Chol, normalized” value (ANGPTL3 gene [5]; [8]) of the same substance?
The value was 0.810.

And the “Avg Total Chol, normalized” value (ANGPTL3 gene [5]; [9])?
Its value is 0.906.
